According to a melting point compilation (Tetko et al.; mined from patent text by program, amines drawn as free bases though some values may be those of a salt):

SMILES	melting point
CN(C)c1ccc(NC(=O)c2cc3cc(C(F)(F)F)ccc3n2Cc2cccc(F)c2)cn1	192 to 193 °C
O=C(c1cccs1)c1cnn2c(-c3cccc(-n4cccc4)c3)ccnc12	211 to 213 °C
O=Cc1cn(Cc2ccc(OCc3ccccc3)cc2)cc1-c1ccccc1	100 to 101 °C
Nc1sc2c(c1C(=O)c1ccc(I)cc1)CCN(C(=O)Nc1ccccc1)C2	89 to 90 °C
O=C1NCCc2c(OCC3CO3)cccc21 (stereo not given)	165 to 166 °C
Cc1ccc2nc(CO)cc(Cl)c2c1	147 to 148 °C
COc1cc(NC(=O)CCN2CCCN(CCC(=O)Nc3cc(OC)c(OC)c(OC)c3)CC2)cc(OC)c1OC	135 to 137 °C
O=S(=O)(c1ccccc1)n1c(C(O)c2ccoc2)cc2ccncc21 (stereo not given)	168 to 171 °C
CCOc1ccc2c(c1)n(CCN(C(C)C)C(C)C)c(=O)n2S(=O)(=O)c1ccc(OC)cc1OC	132 °C
CC1(C(=O)c2c[nH]c3ncc(-c4cccc(N5CCN(S(C)(=O)=O)CC5)c4)nc23)CCCCC1	230 to 231 °C
CCCC(=O)c1cnc2c(OCCCN3CCCC3)cccc2c1Nc1ccccc1C	101 to 103 °C
COc1ccc(COc2ccc(/C=C/c3cc(/C=C/c4ccc5cc[nH]c5c4)n[nH]3)c(OC)c2)cc1	211 to 214 °C
CCOC(=O)c1cc(=O)c2cc(Oc3ccccc3)c(NS(C)(=O)=O)cc2o1	155 to 156 °C
Clc1cc2nc(NC3=NCCN3)[nH]c2cc1Cl	265 to 272 °C
Cc1ccnc2c(Oc3ccccc3N)cccc12	160 to 161 °C
CC1=Nc2c(-c3ccncc3)c(-c3ccc(F)cc3)nn2C(C)(C)C1	171 to 173 °C
COCC(=O)NNC(=O)c1cc2cccc(N(C)S(=O)(=O)c3cccs3)c2[nH]1	148 to 149 °C
CS(=O)(=O)C(=C1CN(C(c2ccccc2)c2ccccc2)C1)c1cccc(Br)c1	200 °C
CC(C(=O)CO)c1ccc(-c2ccccc2)c(F)c1 (stereo not given)	63 to 64.5 °C
Cc1cc2c(s1)SCCc1cc(=O)n(-c3ccc(Cl)cc3)nc1-2	150 to 151 °C
NN(C(=O)c1c(F)cccc1Cl)c1ccccc1C(F)(F)F	147 to 148 °C
O=C(Oc1ccccc1)N1CCC2(CC1)SC(c1ccccc1)c1ccc(F)cc12 (stereo not given)	156 to 158 °C
COCCN(CCOC)C(=O)c1ccc(C(=O)N2CCN(c3ncccc3NC(C)C)CC2)cc1	82 to 83 °C
CCOC(=O)N1CCC(SC(c2ccccc2)c2ccccc2)CC1	70 to 71 °C
COC1CC(OCc2ccccc2)C(OS(=O)(=O)c2ccc(C)cc2)C(COC(c2ccccc2)(c2ccccc2)c2ccccc2)O1 (stereo not given)	94 to 97 °C

SMILES	melting point
N#Cc1c(Cl)c(F)cc(C(=O)Cl)c1Cl	73 to 75 °C
CC(C)(Br)C(=O)NCc1ccccc1	73.4 to 75.5 °C
COC(=O)C(C)(N)Cc1c[nH]c2ccc(OC(F)F)cc12 (racemic)	140 to 142 °C
CCCCCCCCCCOc1ccc(C(=O)Nc2ccc(C(=O)O)cc2)cc1C12CC3CC(CC(C3)C1)C2	247 to 248 °C
CC(=O)n1cc(Cl)c(-c2ccccc2Cl)c1	82 to 84 °C
O=C1C=C(c2cccc(C(F)(F)F)c2)CO1	124 to 125 °C
Cc1cnc(-c2cc3c(O)cccc3s2)o1	188 to 189 °C
Cc1cc(N2CN=C(C(F)(F)F)O2)cc(C)c1OCCCc1ccc(C(C)(F)F)nn1	54.5 °C
Cc1oc2c(-n3c(=O)cc(C(F)(F)F)n(C)c3=O)ccc(Cl)c2c1C	152 to 153 °C
Nc1nc(-n2cc(C(=O)O)c(=O)c3cc(F)c(F)c(Cl)c32)c(Cl)cc1F	280 °C
C=CCOC(=O)c1ccc(OC(=O)c2ccc(O)c(C34CC5CC(CC(C5)C3)C4)c2)cc1	175 to 177 °C
CC(=O)c1ccc(-c2ccc(F)cc2F)c(Cl)c1	63 to 64 °C
CCc1ccccc1/C(N)=C1\Sc2ccccc2C1=O	132 to 133 °C
COCOc1ccc(OCc2ccc(OCc3nc(-c4ccccc4)oc3C)cc2)c(CC#N)c1	123 to 124 °C
COCc1cc([N+](=O)[O-])ccc1C	45 to 49 °C
O=C(O)C1CCc2c(n(C(=O)c3ccccc3)c3ccc(Cl)cc23)C1 (stereo not given)	196 to 197 °C
O=[N+]([O-])c1ccc(CN2CCc3ccccc32)cc1	95 to 97 °C
CCN1C(=O)CC(=O)N(CC)C1=O	52 °C
O=C(/C=C/C=C/c1ccccc1)NCCCCC(=O)NO	168 to 170 °C
CCOCc1c2c(cc3c(=O)cc(C(=O)O)oc13)CCCC2	239 °C
Cc1cc(OC(=O)c2ccccc2)cc(C)c1O	140 to 141 °C
CCCCCCCCCCc1ccc(NC(=O)c2cnc(C(=O)NCC(=O)OCC)c(OC)c2)cc1	155 to 157 °C
O=CNC[C@H]1CN(c2ccc(N3CCOCC3)c(F)c2)C(=O)O1	44 to 47 °C
CC(C)(C)OC(=O)N1CCCC(C2=C(C#N)C(c3cccc4nonc34)c3c[nH]nc3N2)C1 (stereo not given)	229 °C
CCc1c2nc(-c3cc(S(C)(=O)=O)ccc3OCC(C)C)[nH]c(=O)c2nn1Cc1nccn1C	253 to 254 °C

SMILES	melting point
NCCCCCCCCNc1nc(N)nc2c1ncn2C1C=CC(CO)C1 (stereo not given)	125 to 127 °C
CCCCOc1c(CNC(=O)OC(C)(C)C)n(CC2CC2)c(=O)c2ccc(-c3cnco3)cc12	160 to 161 °C
Cc1cccc(-c2ccc3ccc(N)nc3n2)c1	180 °C
CCOC(=O)c1ccc(OCC(C)O)cc1 (stereo not given)	52 to 53 °C
NC(=O)N1CCN(c2ccc(O)c(O)c2)C1=O	> 250 °C
CCOC(=O)c1ccc(CBr)c(F)c1	42.5 to 44 °C
CS(=O)(=O)c1ccc(-c2cnn(CC(F)(F)F)c(=O)c2SC2CCCC2)cc1	149 to 151 °C
CCN(CC)C(=O)c1cc(C)nc([N+](=O)[O-])c1	90 to 91 °C
CCCCNC(=O)OC1c2cc(Cl)ccc2C(=O)N1c1ccc2ccc(Cl)nc2n1 (stereo not given)	228 to 230 °C
CCN1CCCC1CNS(=O)(=O)c1ccc(Nc2ccnc3cc(C(F)(F)F)ccc23)cc1 (stereo not given)	194 to 195 °C
O=S(=O)(Nc1ccc2ccc(OCc3ccc4ccccc4n3)cc2c1)C(F)(F)F	172 to 175 °C
CN(C)c1n[nH]c(-c2ccc(F)cc2)c1-c1ccncc1	245 to 247 °C
CCCCCCCCCCCCCCCCC(NC(C)=O)(C(=O)OCC)C(=O)OCC	65 to 67 °C
COc1ccc(-c2csc(NN=Cc3cn(Cc4ccc(Cl)cc4Cl)c4ccccc34)n2)cc1OC	205 °C
Nc1ncc(F)cc1I	70 °C
CC(C)(CCCCC(=O)CCCCC1(C(=O)O)CCC1)C(=O)O	53 to 55 °C
CS(=O)(=O)c1ccc(-c2cc(=O)n(Cc3ccc(F)cc3)nc2-c2ccc(F)cc2)cc1	150 to 151 °C
c1cncc(NCCCOc2cccc(CN3CCCCC3)c2)c1	120 to 122 °C
CCNc1ccc(Cc2ccc(NCC)c3ccccc23)c2ccccc12	165 to 168 °C
O=S(=O)(Nc1onc(-c2ccccc2)c1Br)c1ccccc1	113 to 115 °C
COc1ccc(CN(C)CCCc2ccc(NC(=O)c3cccc4c(=O)c5cccc([N+](=O)[O-])c5[nH]c34)cc2)cc1OC	192 °C
CS(=O)(=O)c1ccc(Oc2cc(OCc3ccccc3)c3[nH]c(-c4nnc(CO)s4)cc3c2)cc1	159 to 160 °C
O=c1[nH]c(=O)n(C2CC(O)C(CO)O2)cc1C(I)=CI (stereo not given)	103 to 105 °C
CCCCN(C)C(=O)OCCCc1ccc(OCCOC)cc1Oc1ncc(C(F)(F)F)cc1Cl	54 to 55.2 °C
COc1ccc(C=C(C#N)C=O)cc1OC	157 to 158 °C

SMILES	melting point
C=C(COc1ccc(C(=O)CCC(=O)OC)cc1)COc1ccc(C(C)=O)c(O)c1CCC	89 to 90 °C
O=C(O)c1ccc(C(F)(F)F)nc1C=CCCl	137 to 138 °C
COC(=O)c1ccc(O)nc1C1=NC(C)(C(C)C)C(=O)N1 (stereo not given)	186 to 191 °C
CN(Cc1ccc([N+](=O)[O-])cc1)C(CO)CO	65 to 66 °C
COc1ccccc1[C@H](c1cccc2ccccc12)[C@@](C)(C#N)C(=O)N1CC=C(c2c[nH]c3ccccc23)CC1	229 to 231 °C
COC(=O)Nc1nc2cc(C3(c4ccccc4)OCC(C)(C)CO3)ccc2[nH]1	224 °C
COc1ccc(OC)c(Cc2nc3ccc(C)cc3c(=O)[nH]2)c1	188 to 189 °C
O=C(O)Cc1ccc(-c2ccc(-c3ccccc3)cc2)o1	196 to 210 °C
COc1ccccc1N1CCN(C(=S)Nc2nc3ccccc3nc2OC)CC1	160 to 162 °C
N#Cc1ccc(NC(=O)CN2CCC(Cc3ccccc3)CC2)cc1	120 to 124 °C
COc1c(N2CCC(CN)C2)c(F)cc2c(=O)c(C(=O)O)cn(C3CC3)c12 (stereo not given)	198 to 200 °C
CC(=O)c1ccc(-c2cnco2)cc1	128 to 130 °C
CCN(CC)CCNC(=O)c1cc(I)cc2c(=O)cc[nH]c12	141 to 143 °C
Fc1ccc(N=Cc2ccccc2)c(F)c1	51 to 52 °C
CCCc1nc2cccc(C(=O)OC)c2n1Cc1ccc(-c2ccccc2-c2nnn[nH]2)cc1	195 to 196 °C
O=C1CCn2c(-c3ccccc3)nc3cc(Cl)cc1c32	234 to 235 °C
CSc1ccc(-c2n[nH]c(=O)cc2-c2ccc(Cl)cc2)cc1	202 to 204 °C
CCCCCCCC/C(=C\C=C\C(=O)O)c1ccc(OC)cc1	109 to 110 °C
O=[N+]([O-])c1ccc2c(c1)CCN(Cc1ccc3cc([N+](=O)[O-])ccc3n1)CC2	127 to 130 °C
C=Cc1ccc(-n2cc(C)c(=O)[nH]c2=O)cc1	185 °C
C=CCNC(=O)N1CC(Oc2ccc(C(F)(F)F)cc2Cl)C1	102 to 104 °C
Cc1csc2c(=O)n(CCC(C(=O)NO)N(C)S(=O)(=O)c3ccc(Oc4ccccc4)cc3)c(=O)[nH]c12 (stereo not given)	170 to 171 °C
CCCCN1C(=O)c2ccc(O)cc2C1=O	126 to 127 °C
Clc1ccc(-c2nc(Br)cnc2OCC2CC2)cc1	86 to 87 °C
COC(=O)c1nc(N2CCCC2)ccc1Oc1nc(OC)cc(OC)n1	151 to 153 °C
